Tests used:
[1] = Volume of distribution in dog at 10 umol/kg, iv; format: ADME, organism-based, Canis lupus familiaris; conditions: in vivo, read-out: Vbeta
[2] = Plasma clearance in rat at 10 umol/kg, iv; format: ADME, organism-based
[3] = Half life in rat at 10 umol/kg, iv; format: ADME, organism-based; conditions: in vivo
[4] = Half life in dog at 10 umol/kg, iv; format: ADME, organism-based, Canis lupus familiaris; conditions: in vivo
[5] = Volume of distribution in rat at 10 umol/kg, iv; format: ADME, organism-based; conditions: in vivo, read-out: Vbeta
[6] = Plasma clearance in dog at 10 umol/kg, iv; format: ADME, organism-based, Canis lupus familiaris
[7] = Bioavailability in dog at 10 umol/kg, po; format: ADME, organism-based, Canis lupus familiaris; conditions: in vivo
[8] = target: Transient receptor potential cation channel subfamily V member 1 (Homo sapiens, UniProt Q8NER1); assay: Antagonist activity at human TRPV1 by calcium influx assay; format: functional
Transient receptor potential cation channel subfamily V member 1, sequence (Q8NER1 whole entry): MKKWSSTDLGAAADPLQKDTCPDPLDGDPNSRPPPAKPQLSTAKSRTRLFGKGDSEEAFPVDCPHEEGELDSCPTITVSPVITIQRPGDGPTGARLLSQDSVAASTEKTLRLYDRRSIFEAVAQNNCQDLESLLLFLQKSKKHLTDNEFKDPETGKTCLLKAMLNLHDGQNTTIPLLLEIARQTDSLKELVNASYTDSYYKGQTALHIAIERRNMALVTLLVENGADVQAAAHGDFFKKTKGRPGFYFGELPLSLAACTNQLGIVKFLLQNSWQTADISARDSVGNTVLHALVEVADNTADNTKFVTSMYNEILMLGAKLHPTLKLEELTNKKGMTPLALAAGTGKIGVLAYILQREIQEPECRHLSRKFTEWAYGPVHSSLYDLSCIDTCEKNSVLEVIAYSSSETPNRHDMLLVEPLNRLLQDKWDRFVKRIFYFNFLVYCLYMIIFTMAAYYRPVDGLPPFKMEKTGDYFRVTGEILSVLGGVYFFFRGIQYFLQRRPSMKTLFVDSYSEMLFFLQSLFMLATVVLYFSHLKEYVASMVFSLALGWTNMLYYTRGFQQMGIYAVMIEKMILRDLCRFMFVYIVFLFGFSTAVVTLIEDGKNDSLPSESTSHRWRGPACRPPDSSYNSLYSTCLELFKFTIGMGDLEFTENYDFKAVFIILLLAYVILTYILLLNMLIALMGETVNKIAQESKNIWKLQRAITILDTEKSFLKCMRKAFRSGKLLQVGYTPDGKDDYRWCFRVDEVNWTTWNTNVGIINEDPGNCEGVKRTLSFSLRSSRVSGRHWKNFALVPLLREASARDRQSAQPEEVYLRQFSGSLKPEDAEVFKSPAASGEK

[9] = Bioavailability in rat at 10 umol/kg, po; format: ADME, organism-based; conditions: in vivo

IC50 [8] | SMILES | further results
171 nM | O=C(Nc1cccc2cnccc12)NC(c1ccccc1)c1ccc(N2CCCCC2)cc1 (stereo not given) | –
20 nM | CCc1cc(C(C)(C)C)ccc1C(C)NC(=O)Nc1cccc2cnccc12 (stereo not given) | –
17 nM | CC(NC(=O)Nc1cccc2cnccc12)c1ccc(C(C)(C)C)cc1C(C)(C)C (stereo not given) | –
94 nM | CC(C)(NC(=O)Nc1cccc2cnccc12)c1ccc(C(F)(F)F)cc1 | –
749 nM | Cc1ccc([C@H](C)NC(=O)Nc2cccc3[nH]ncc23)cc1 | –
3750 nM | C[C@H](NC(=O)Nc1cccc2[nH]ncc12)c1cccc2ccccc12 | –
123 nM | C[C@@H](NC(=O)Nc1cccc2[nH]ncc12)c1cccc2ccccc12 | –
125 nM | CC(C)(C)c1ccc(C(NC(=O)Nc2cccc3cnccc23)c2ccccc2)cc1 (stereo not given) | –

The next lines start with the compound.

SMILES | IC50 [8] | further results
O=C(NCc1ccc(C(F)(F)F)cc1)Nc1cccc2cnccc12 | – | Vd [1]: 0.5 L/kg; clearance [2]: 10 mL/min/kg; half-life [3]: 36 min; half-life [4]: 60 min; Vd [5]: 0.6 L/kg; clearance [6]: 6.67 mL/min/kg; bioavailability [7]: 32%
CC(NC(=O)Nc1cccc2cnccc12)c1ccc(C(C)(C)C)cc1 (stereo not given) | 24 nM | –
CC(NC(=O)Nc1cccc2cnccc12)c1ccc(C(F)(F)F)c(F)c1 (stereo not given) | 19 nM | –
O=C(Nc1cccc2cnccc12)NC(c1ccccc1)c1ccc(C(F)(F)F)cc1 (stereo not given) | 147 nM | –
Cc1cc(C(C)(C)C)ccc1C(C)NC(=O)Nc1cccc2cnccc12 (stereo not given) | 46 nM | –
CCC(NC(=O)Nc1cccc2cnccc12)c1ccccc1 (stereo not given) | 2580 nM | –
N#CCC(NC(=O)Nc1cccc2cnccc12)c1ccccc1 (stereo not given) | 15900 nM | –
O=C(Nc1cccc2cnccc12)NC(c1ccc(C(F)(F)F)cc1)C1CC1 (stereo not given) | 149 nM | –
O=C(Nc1cccc2cnccc12)NC(c1ccc(C(F)(F)F)cc1)C1CCCCC1 (stereo not given) | 287 nM | –
CC(C)(NC(=O)Nc1cccc2cnccc12)c1ccc(Cl)cc1 | 143 nM | –
C[C@@H](NC(=O)Nc1cccc2[nH]ncc12)c1ccc(C(F)(F)F)cc1 | 41 nM | bioavailability [9]: 53%; half-life [3]: 126 min; Vd [5]: 2.9 L/kg
CC(NC(=O)Nc1cccc2cnccc12)c1ccc(C(F)(F)F)cc1 (stereo not given) | 22 nM | Vd [1]: 1.1 L/kg; clearance [2]: 11.7 mL/min/kg; bioavailability [9]: 47%; half-life [3]: 66 min; half-life [4]: 96 min; Vd [5]: 1.1 L/kg; clearance [6]: 8.33 mL/min/kg; bioavailability [7]: 98%
CN(C)CC(NC(=O)Nc1cccc2cnccc12)c1ccccc1 (stereo not given) | 31000 nM | –
O=C(Nc1cccc2cnccc12)NC(c1ccc(C(F)(F)F)cc1)C1CCCC1 (stereo not given) | 476 nM | –
C[C@H](NC(=O)Nc1cccc2[nH]ncc12)c1ccc(C(F)(F)F)cc1 | 248 nM | –
Cc1ccc([C@@H](C)NC(=O)Nc2cccc3[nH]ncc23)cc1 | 73 nM | –
O=C(Nc1cccc2cnccc12)NC(c1ccccc1)c1ccccc1 | 600 nM | –
CCC(NC(=O)Nc1cccc2cnccc12)c1ccc(C(F)(F)F)c(F)c1 (stereo not given) | 109 nM | –
CC(NC(=O)Nc1cccc2cnccc12)c1ccc(Br)cc1 (stereo not given) | 26 nM | –
CC(NC(=O)Nc1cccc2[nH]ncc12)c1ccc(C(F)(F)F)cc1 (racemic) | 47 nM | –

Reference: ChEMBL document CHEMBL1145370, “Alpha-methylation at benzylic fragment of N-aryl-N'-benzyl ureas provides TRPV1 antagonists with better pharmacokinetic properties and higher efficacy in inflammatory pain model” (Bioorg Med Chem Lett, 2007)
